{
  "source": "patent EP1009418B1",
  "about": "“ROBINIA PSEUDOACACIA LECTIN AND ITS USES” (priority 1997, dated 1999)",
  "key": {"[1]": {"tested_on": "small intestine, jejunum and ileum", "assay": "Protection of rats from high-dose 5-FU by oral pre-dosing with RPA: gut wet weights and visual inspection", "type": "in vivo, Hooded Lister (Rowett Strain) rats", "method": "(§1) Thirty five young male Hooded Lister (Rowett Strain) rats (19 days old weighing 30-40g) were housed individually in grid bottom cages. The animals were fed a high quality semi-synthetic diet containing 10% lactalbumin protein (Table 1).\n(§2) Diet and water was freely available at all times except on day 19 when the amount of food offered was restricted to 10g/rat. At 19 days, rat weights were 100-104g.\nAnimals pre-dosed with RPA were given the equivalent of 25, 50 or 100 mg/kg body weight RPA (Table 2) in 0.9% saline by gavage. The animals were pre-dosed for three consecutive days prior to the 5-FU injection.\n(§3) Animals not pre-dosed with RPA were administered with 1 ml 0.9% saline by gavage.\n(§4) 300mg of 5-fluorouracil was stirred in 14ml of distilled water. 1M NaOH was added slowly until the 5-FU had dissolved. The solution was made up to a final volume of 20 ml. The final pH of the solution was 8.3. A dose of 150 mg/kg body weight was administered to the animal by intraperitoneal injection. Immediately after the injection, the rats were offered 15g of the control diet.\nFive groups, each consisting of 5 rats were fed on the standard diet containing lactalbumin (Table 1). One group of rats were fed 8 g per day of standard diet for three days and then injected with 5-FU at 150 mg/kg body weight (Table 2).\nThe rats were pair fed for the first three days and then fed ab libitum post 5-FU injection.\nThree groups of animals were gavaged daily with 25, 50 or 100 mg/kg/day body weight Robinia pseudoacacia lectin (RPA) for three days and then injected with 150 mg/kg 5-FU on the following day. The remaining group of animals were pre-dosed with 100 mg/kg body weight RPA and then returned to lactalbumin containing diet without injection of 5-FU. After injection with 5-FU, the animals were returned to lactalbumin containing diet ad lib. The animals were sacrificed 7 days after the start of the experiment, the carcass dissected and the small intestine, jejunum and ileum wet weights recorded."}, "[2]": {"tested_on": "small intestine, jejunum and ileum", "assay": "Protection of rats from high-dose 5-FU by oral pre-dosing with A4 or B4 homotetramer lectin: gut dry weights and visual inspection", "type": "in vivo, Hooded Lister (Rowett Strain) rats", "method": "as §1, §2, §3, §4\nFive groups, each consisting of 5 rats were fed on a standard diet containing lactalbumin (Table 1) and were fed on the following dietary regime (Table 4); Table 4.\nOne group of animals (Treatment 1) were fed standard diet throughout. The second group were gavaged daily with saline for three days and then injected with 5-FU at 150 mg/kg body weight (Treatment 2). The remaining two groups (Treatment 3 & 4) of animals were gavaged daily for three days with either A4 or B4 RPA homotetramer for three days and then injected with 150 mg/kg body weight 5-FU. After injection with 5-FU, Treatment groups 2-4 were returned to standard diet for four days ad lib. The animals were sacrificed 7 days after the start of the experiment, the carcass dissected and the small intestine, jejunum and ileum dry weights recorded.\nDry weights normalised to 100g dry body weight."}, "[3]": {"conditions": "wet weight, lactalbumin diet 3d, 5-FU 150 mg/kg i.p., no RPA"}, "[4]": {"conditions": "dry weight normalised to 100g dry body weight, saline gavage 3d, 5-FU 150 mg/kg, no lectin"}},
  "data": [
    {"smiles": "O=c1[nH]cc(F)c(=O)[nH]1", "note": "[5-FU, 5-fluorouracil]", "values": [
      {"measurement": "Visual inspection of the small intestine, jejunum and ileum", "setting": "[1]; 5-FU alone (treatment 1)", "result": "no, or a very thin mucosal layer"},
      {"measurement": "Ileum", "setting": "[1]; [3]", "result": 1.0, "unit": "g"},
      {"measurement": "Jejunum", "setting": "[1]; [3]", "result": 1.0, "unit": "g"},
      {"measurement": "Small intestine", "setting": "[1]; [3]", "result": 5.62, "unit": "g"},
      {"measurement": "tissue dry weight versus the untreated control", "setting": "[2]; 5-FU 150 mg/kg (treatments 1 & 2)", "result": "significant reduction in tissue dry weight"},
      {"measurement": "Visual inspection of the small intestine, jejunum and ileum", "setting": "[2]; 5-FU alone", "result": "extensively damaged mucosal"},
      {"measurement": "Ileum", "setting": "[2]; [4]", "result": 405, "unit": "mg"},
      {"measurement": "Jejunum", "setting": "[2]; [4]", "result": 336, "unit": "mg"},
      {"measurement": "Small intestine", "setting": "[2]; [4]", "result": 1789, "unit": "mg"}
    ]}
  ]
}
